Numbers after ± are expanded uncertainties.
Assay: xn = mol fraction of the nth substance listed
Settings: 101 kPa, Liquid; for speed of sound: Sing-around technique in a fixed-path interferometer

Cc1ccccc1C [1,2-dimethylbenzene] + COC(C)(C)C
Settings | mass density, 315.65 K [kg/m3] | mass density, 318.15 K [kg/m3] | mass density, 320.65 K [kg/m3] | mass density, 323.15 K [kg/m3] | speed of sound, 315.65 K [m/s] | speed of sound, 318.15 K [m/s] | speed of sound, 320.65 K [m/s] | speed of sound, 323.15 K [m/s]
x2 = 0 | 860.179 ± 0.38 | 858.054 ± 0.38 | 855.927 ± 0.39 | 853.803 ± 0.39 | – | 1260.6 ± 2.2 | 1250.7 ± 2.2 | 1240.9 ± 2.2
x2 = 0.052 | 853.286 ± 0.41 | 851.136 ± 0.41 | 848.981 ± 0.42 | 846.833 ± 0.42 | – | 1253.5 ± 2.2 | 1243.6 ± 2.2 | 1233.9 ± 2.2
x2 = 0.101 | 847.168 ± 0.42 | 845 ± 0.42 | 842.834 ± 0.43 | 840.678 ± 0.43 | – | 1239 ± 2.2 | 1229.1 ± 2.2 | 1219.5 ± 2.2
x2 = 0.203 | 833.542 ± 0.44 | 831.325 ± 0.45 | 829.108 ± 0.45 | 826.892 ± 0.45 | – | 1208.4 ± 2.2 | 1198.3 ± 2.2 | 1188.3 ± 2.2
x2 = 0.303 | 819.996 ± 0.46 | 817.731 ± 0.46 | 815.461 ± 0.47 | 813.194 ± 0.47 | – | 1177.1 ± 2.2 | 1166.9 ± 2.2 | 1156.9 ± 2.2
x2 = 0.401 | 806.651 ± 0.48 | 804.337 ± 0.48 | 802.016 ± 0.49 | 799.699 ± 0.49 | – | 1146.7 ± 2.2 | 1136.4 ± 2.2 | 1126.2 ± 2.2
x2 = 0.499 | 792.544 ± 0.5 | 790.173 ± 0.51 | 787.797 ± 0.51 | 785.421 ± 0.51 | 1125.3 ± 2.2 | 1114.9 ± 2.2 | 1104.4 ± 2.2 | 1094.1 ± 2.2
x2 = 0.604 | 777.236 ± 0.53 | 774.802 ± 0.53 | 772.358 ± 0.53 | 769.917 ± 0.54 | 1092 ± 2.2 | 1081.2 ± 2.2 | 1070.5 ± 2.2 | 1059.9 ± 2.2
x2 = 0.707 | 761.858 ± 0.55 | 759.355 ± 0.55 | 756.834 ± 0.56 | 754.356 ± 0.56 | 1056.8 ± 2.2 | 1045.8 ± 2.2 | 1034.8 ± 2.2 | 1024.2 ± 2.2
x2 = 0.8 | 747.693 ± 0.57 | 745.123 ± 0.57 | 742.544 ± 0.58 | 739.964 ± 0.58 | 1024.9 ± 2.2 | 1014 ± 2.2 | 1003.2 ± 2.2 | 992.41 ± 2.2
x2 = 0.9 | 731.912 ± 0.59 | 729.271 ± 0.6 | 726.621 ± 0.6 | 723.991 ± 0.61 | 992.02 ± 2.2 | 980.41 ± 2.2 | 968.31 ± 2.2 | 957.28 ± 2.2
x2 = 0.95 | 723.834 ± 0.61 | 721.145 ± 0.61 | 718.446 ± 0.61 | 715.742 ± 0.62 | 973.42 ± 2.2 | 962.22 ± 2.2 | 951.04 ± 2.2 | 940.07 ± 2.2
